EC50 and IC50 data for 6 molecules are collected here from US12590062B2, “PD-1/PD-L1 inhibitors” (Gilead Sciences, Inc., priority 2017, dated 2026).

Assay [1] has as its target T1, interaction between the recombinant extracellular domain (ECD) of PD-1 and native cell-bound PD-L1 (Homo sapiens, UniProt Q9NZQ7).
T1 construct: expressed in transfected cells
Put plainly: CHO/PD-L1 cell capture assay. The assay is classed as cell-based. To be noted: CHO cells overexpressing PD-L1, pre-incubated 1 hr with compound, captured on biotinylated Fc-PD-1 coated plates, 75 min at room temperature. The method, boiled down:
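CHO cells stably overexpressing PD-L1 were pre-incubated 1 hr with compound, then captured 75 min at room temperature on biotinylated Fc-PD-1 ECD bound to streptavidin plates. After glutaraldehyde/Draq5 fixation-staining, captured cells were counted by high-content microscopy; EC50 from four-parameter dose-response fits.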

In a further assay the target is T2, PD-1/PD-L1 interaction (Homo sapiens, UniProt Q9NZQ7).
T2 construct: expressed in transfected cells; host or cells: CHO cells (aAPC-PD-L1) co-cultured with Jurkat cells overexpressing PD-1 and an NFAT-luciferase reporter
T2 sequence (Q9NZQ7 19-290): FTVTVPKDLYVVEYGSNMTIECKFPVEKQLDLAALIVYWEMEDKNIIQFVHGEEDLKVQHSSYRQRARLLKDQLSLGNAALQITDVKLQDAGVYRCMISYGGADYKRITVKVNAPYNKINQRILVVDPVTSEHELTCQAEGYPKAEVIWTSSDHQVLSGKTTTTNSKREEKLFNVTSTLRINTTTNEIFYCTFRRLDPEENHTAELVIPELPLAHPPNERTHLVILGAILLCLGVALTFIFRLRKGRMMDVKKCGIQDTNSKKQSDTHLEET
Put plainly: PD-1/PD-L1 NFAT reporter co-culture assay. The assay is classed as cell-based. To be noted: Jurkat PD-1 NFAT-luciferase cells co-cultured with aAPC-PD-L1 CHO cells, 6 hrs at 37° C.; read-out: EC50 NFAT Luciferase. An outline of the steps: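 CHO aAPC-PD-L1 seeded overnight; PD-1/NFAT-luc Jurkat + cpd in RPMI 1640, 2% FBS added at once; 6 h, 37 °C; ONE-Glo luminescence; EC50, 4-parameter fit.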

For a further assay, the target named is PD-1/PD-L1 (Homo sapiens, UniProt Q9NZQ7). Put plainly: PD-1/PD-L1 biochemical protein-protein interaction assay (ALPHA). The class given is binding. To be noted: 0.3 nM His tagged PD-L1, 2.5 nM biotinylated Fc-PD-1, 60 minutes at 25° C., read-out: IC50 PD-L1-PD-1 Alpha IC50-mono PD-L1-fcP-D1. The method, boiled down: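 Final concentrations 0.3 nM His-tagged PD-L1 and 2.5 nM biotinylated Fc-PD-1 (extracellular domains) were reacted with compound for 60 min at 25° C in pH 7.4 Hepes/NaCl/EDTA/Tween/BSA buffer. Binding was then detected by ALPHA beads, and IC50 values were taken from four-parameter curve fitting.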
Sequence of PD-1/PD-L1 (Q9NZQ7 19-238 limits assumed): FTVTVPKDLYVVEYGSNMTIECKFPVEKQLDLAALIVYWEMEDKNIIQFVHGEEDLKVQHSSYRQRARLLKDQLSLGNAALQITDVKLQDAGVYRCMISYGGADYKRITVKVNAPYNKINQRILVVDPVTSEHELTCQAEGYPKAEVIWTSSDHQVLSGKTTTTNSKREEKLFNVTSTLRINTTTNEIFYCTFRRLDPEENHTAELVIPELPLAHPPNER

pEC50, pIC50: −log10 of the molar value.

T1 sequence (Q9NZQ7 19-290): as the sequence (Q9NZQ7 19-290) above

Broadly, the pEC50 is −log10 of the EC50, conventionally taken in molar units. By pIC50 is commonly meant the IC50 on a negative log10 scale, so that one unit is a factor of ten. Regarding `Cc1c(COc2nc(OCc3cncnc3)c(CNC[C@@H](O)CC(=O)O)cc2Br)cccc1-c1cccc(COc2nc(OCc3cncnc3)c(CNC[C@@H](O)CC(=O)O)cc2Br)c1C` [Example 126, (3S,3′S)-4,4′-((((((2,2′-dimethyl-[1,1′-biphenyl]-3,3′-diyl)bis(methylene))bis(oxy))bis(5-bromo-2-(pyrimidin-5-ylmethoxy)pyridine-6,3-diyl))bis(methylene))bis(azanediyl))bis(3-hydroxybutanoic acid)], the figures for the pEC50 (in assay [1]; at PD-1/PD-L1 interaction) were 6.75 and 6.49, respectively. In addition, the pIC50 at PD-1/PD-L1 is 10.00.

With `CNC(=O)COc1nc(OCc2cccc(-c3cccc(COc4nc(OCC(=O)NC)c(CNC[C@@H](O)CC(=O)O)cc4Br)c3C)c2C)c(Br)cc1CNC[C@@H](O)CC(=O)O` [Example 147, (3S,3′S)-4,4′-((((((2,2′-dimethyl-[1,1′-biphenyl]-3,3′-diyl)bis(methylene))bis(oxy))bis(5-bromo-2-(2-(methylamino)-2-oxoethoxy)pyridine-6,3-diyl))bis(methylene))bis(azanediyl))bis(3-hydroxybutanoic acid)], the pEC50 is 6.93 in assay [1] and 5.92 on PD-1/PD-L1 interaction. Further, the pIC50 at PD-1/PD-L1 is 9.52.

For the molecule `Cc1c(COc2nc(OCC(N)=O)c(CNC[C@@H](O)CC(=O)O)cc2Br)cccc1-c1cccc(COc2nc(OCC(N)=O)c(CNC[C@@H](O)CC(=O)O)cc2Br)c1C` [Example 155, (3S,3′S)-4,4′-((((((2,2′-dimethyl-[1,1′-biphenyl]-3,3′-diyl)bis(methylene))bis(oxy))bis(2-(2-amino-2-oxoethoxy)-5-bromopyridine-6,3-diyl))bis(methylene))bis(azanediyl))bis(3-hydroxybutanoic acid)], the pEC50 in assay [1] is 6.68; on PD-1/PD-L1 interaction, 5.19. For the same molecule, on PD-1/PD-L1, the pIC50 was 9.70.

For the molecule `Cc1c(COc2ccc(CNC[C@@H](O)CC(=O)O)c(OCc3cncnc3)n2)cccc1-c1cccc(COc2ccc(CNC[C@@H](O)CC(=O)O)c(OCc3cncnc3)n2)c1C` [Example 157, (3S,3′S)-4,4′-((((((2,2′-dimethyl-[1,1′-biphenyl]-3,3′-diyl)bis(methylene))bis(oxy))bis(2-(pyrimidin-5-ylmethoxy)pyridine-6,3-diyl))bis(methylene))bis(azanediyl))bis(3-hydroxybutanoic acid)], the pEC50 in assay [1] was 7.09; at PD-1/PD-L1 interaction, 6.33. On PD-1/PD-L1, the pIC50 was 9.70.

As to `Cc1c(COc2nc(OCCN3CCOCC3)c(CNC[C@@H](O)CC(=O)O)cc2Cl)cccc1-c1cccc(COc2nc(OCCN3CCOCC3)c(CNC[C@@H](O)CC(=O)O)cc2Cl)c1C` [Example 159, (3S,3′S)-4,4′-((((((2,2′-dimethyl-[1,1′-biphenyl]-3,3′-diyl)bis(methylene))bis(oxy))bis(5-chloro-2-(2-morpholinoethoxy)pyridine-6,3-diyl))bis(methylene))bis(azanediyl))bis(3-hydroxybutanoic acid)], the values for the pEC50 (in assay [1]; on PD-1/PD-L1 interaction) were 6.72 and 6.27, respectively. Also, on PD-1/PD-L1, the pIC50 was 9.30.

Consider `COc1nc(OCc2cccc(-c3cccc(COc4nc(OC)c(CNC[C@@H](O)CC(=O)O)cc4C(F)(F)F)c3C)c2C)c(C(F)(F)F)cc1CNC[C@@H](O)CC(=O)O` [Example 160, (3S,3′S)-4,4′-((((((2,2′-dimethyl-[1,1′-biphenyl]-3,3′-diyl)bis(methylene))bis(oxy))bis(2-methoxy-5-(trifluoromethyl)pyridine-6,3-diyl))bis(methylene))bis(azanediyl))bis(3-hydroxybutanoic acid)], for which the pEC50 in assay [1] was 6.72; at PD-1/PD-L1 interaction it was 6.86. The pIC50 at PD-1/PD-L1 was 9.22.
